# Measurements taken from patent publication US11304958B2, “Multidentate phenanthridine-containing ligand frameworks and their planar monofunctional platinum complexes for cancer treatment” (UNIVERSITY OF MANITOBA, priority 2018, dated 2022).
# Where two headings read alike, the source gives them in different places.
# Tests used:
# [1] = test system: non-cancerous kidney cell line HEK293; assay: Cytotoxicity screening against normal cells, HEK293; format: cell-based, human; conditions: 72 h, compared with phenanthriplatin
# Method: (§1) Cisplatin and phenanthriplatin were used as controls. Cancer and normal cells were treated for 72 h and cell viability was assessed.
# (§2) A volume of 100 μL of RPMI medium (10% FBS, 1% PS, 89% RPMI 1×, with L-glutamine) containing 2000 cells was seeded in each well of a 96-well microplate, and incubated for 24 h at 37° C. under 5% CO2. After 24 h, a volume of 50 μL of media containing the new compounds of different concentrations was added to the well. The drug-treated cells were incubated for 72 h at 37° C. with 5% CO2. A volume of 30 μL media containing MTT was added into each well, and incubated for 2-4 h at 37° C. with 5% CO2. MTT would be reduced to formazan in living cells.
# (§3) Following this, the media were removed carefully by aspiration and 200 μL DMSO was added into each well. The DMSO is used to dissolve the insoluble formazan into a purple solution. The 96-well microplate with DMSO was then shaken for 10 min at room temperature. Final results were obtained by using a microplate reader to examine the absorbance at 562 nm. Analysis of the data was carried out using Origin™.
# (§4) A2780 and A2780cis cell lines were cultured in RPM11640 with L-glutamine supplemented with 10% FBS and 1% PS. SKOV-3, MDA-MB-231, A549, and HEK293 cell line were cultured in DMEM 1 g/L glucose, with L-glutamine & sodium pyruvate supplemented with 10% FBS and 1% PS. […]
# [2] = test system: A2780cis (cisplatin resistant) ovarian cancer cell line; assay: MTT cytotoxicity assay, A2780cis ovarian cancer cells; format: cell-based, human; conditions: for resistance factor RF = IC50(A2780cis)/IC50(A2780): ovarian cancer cell lines, FIG. 14B
# Excerpt: (§5) In addition, neither the 4-aminophenanthridine precursors nor the proligands L1 or L2 themselves are effective in the absence of platinum(II). As noted above, intercalation enhances covalent binding and ultimately boosts the number of complex-DNA adducts observed for phenanthriplatin, but only when these two processes are simultaneous (30). Phenanthridines in general are anticipated to interact with DNA via an intercalation mechanism, similar to the mechanism of operation of the DNA stain ethidium bromide, of which phenanthridine forms the molecular core (19). […] The differing profile compared to cisplatin (i.e., higher in vitro efficacy and lower cross-resistance) implies a different mechanism of operation from cisplatin, which, considering to the planar structure of 1 and 2 compared to phenanthriplatin (10) likely involves some degree of intercalation. The higher efficacy for 2 (R═CF3) vs 1 (R=tBu) highlights the opportunity to fine-tune biological activity via ligand backbone substitution.
# as §1
# (§6) In addition, neither the phenanthridinyl amines (2-R) nor the ligand itself (L2) are effective in the absence of platinum(II). While not wishing to be bound or limited to a particular theory or hypothesis, it is believed that substituted phenanthridines interact with DNA via an intercalation mechanism, similar to the mechanism of operation of the DNA stain ethidium bromide (19). […] The differing profile compared to cisplatin (i.e., higher in vitro efficacy and lower cross-resistance) implies a different mechanism of operation from cisplatin, which, considering to the planar structure of NNOPt compared to phenanthriplatin (10) likely involves some degree of intercalation. The higher efficacy for 2 (R═CF3) vs 1 (R=tBu) highlights the opportunity to fine-tune biological activity via ligand backbone substitution.
# (§7) Cell line: A2780 (ovarian cells), A2780cis (ovarian cells, drug resistant)
# (§8) RPMI medium: 10% FBS, 1% PS, 89% RPMI 1×, with L-glutamine
# (§9) MTT (5 mg/MI Thiazolyl Blue tetrazolium bromide in PBS)
# as §2, §3
# (§10) A2780 and A2780cis cell lines were cultured in RPM11640 with L-glutamine supplemented with 10% FBS and 1% PS. SKOV-3, MDA-MB-231, A549, and HEK293 cell line were cultured in DMEM 1 g/L glucose, with L-glutamine & sodium pyruvate supplemented with 10% FBS and 1% PS. MET5A cell line was cultured in M199 supplemented with 10% FBS, 1% PS, insulin, 0.1% Trace Elements B, […] Hydrocortisone, and 4 ng/mL EGF. All cell lines were incubated at 37° C. under an atmosphere containing 5% CO2. Cells were passaged by trypsinization and split in a 1:5 ratio.
# [3] = test system: A2780 (cisplatin sensitive) ovarian cancer cell line; assay: MTT cytotoxicity assay, A2780 ovarian cancer cells; format: cell-based, human; conditions: for IC50: 72 h; for in vitro cytotoxic activity in the absence of platinum(II): A2780 and A2780cis cell lines
# Excerpt: as §5, §6, §7, §8, §9, §2, §3, §10
# [4] = test system: non-cancerous mesothelial cell line MET-5A; assay: Cytotoxicity screening against normal cells, MET-5A; format: cell-based, human; conditions: 72 h, compared with phenanthriplatin
# Method: as §1, §2, §3, §4
# Human Cancer Cells = conditions: reportedly, ref. (9); cited from earlier work
# [5] = further screening (FIG. 14A), treated for 72 h, read-out: IC50 in A2780cis cisplatin-resistant ovarian cancer cell line
# [6] = preliminary cytotoxicity data, MTT, 72 h, read-out: A2780cis IC50
# [7] = Homo sapiens, A2780cis, preliminary cytotoxicity data, MTT, 72 h, read-out: A2780cis IC50
# [8] = Homo sapiens, A2780, preliminary cytotoxicity data
compound,measurement,setting,value
[Pt(CF3-phenanthridinenacac)Cl] [Complex 2],toxicity against normal cells (HEK293),[1],less toxic than phenanthriplatin
same,IC50 times lower than that of cisplatin,"[2]; A2780cis, 72 h",58 times
same,IC50,[2]; [5],0.55 ± 0.22 µM
same,resistance factor RF = IC50(A2780cis)/IC50(A2780),[2],1.1
same,IC50,[2]; [6],0.955 ± 0.106 µM
same,IC50,[3]; preliminary cytotoxicity data,0.341 ± 0.112 µM
same,toxicity against normal cells (MET-5A),[4],less toxic than phenanthriplatin
"CC(C)(C)c1cc(N)c2ncc3ccccc3c2c1 [Complex 2-tBu, 2-tert-butyl-4-aminophenanthridine]",IC50,[2]; [7],20.5 ± 6.07 µM
same,IC50,[3]; [8],8.38 ± 2.83 µM
"CC(=O)C=C(C)Nc1cc(C(C)(C)C)cc2c1ncc1ccccc12 [Complex L1, 4-(2′-tert-butyl-4-aminophenanthridinyl)-3-penten-2-one]",in vitro cytotoxic activity in the absence of platinum(II),[3],lack of activity
"N.N.O=[N+]([O-])[O-].[Cl][Pt+].c1ccc2c(c1)cnc1ccccc12 [phenanthriplatin, [c/s-R(NH3)2(phenanthridine)Cl][NO3], reference compound]",resistance factor RF = IC50(A2780cis)/IC50(A2780),[2],2.7
"N.N.O=[N+]([O-])[O-].[Cl][Pt+].c1ccncc1 [pyriplatin, [c/s-R(NH3)2(pyridine)Cl][NO3]]",potency relative to cisplatin or oxaliplatin,Human Cancer Cells,ten-fold less potent
"Nc1cc(C(F)(F)F)cc2c1ncc1ccccc12 [Complex 2-CF3, 2-trifluoromethyl-4-aminophenanthridine]",IC50,[2]; [7],> 100 µM
same,IC50,[3]; [8],19.3 ± 12.1 µM
[Pt(tBu-phenanthridine-nacac)Cl] [Complex 1],IC50,[2]; [6],4.57 ± 1.41 µM
same,IC50,[3]; preliminary cytotoxicity data,2.81 ± 0.168 µM
"CC(=O)C=C(C)Nc1cc(C(F)(F)F)cc2c1ncc1ccccc12 [Complex L2, 4-(2′-trifluoromethyl-4′-aminophenanthridinyl)-3-penten-2-one]",IC50,[2]; [6],20.1 ± 7.17 µM
same,in vitro cytotoxic activity in the absence of platinum(II),[3],lack of activity
same,IC50,[3]; preliminary cytotoxicity data,7.22 ± 2.07 µM
"N.N.[Cl][Pt][Cl] [cisplatin, cis-diaminedichloroplatinum(II), reference compound]",IC50,[2]; [5],32.9 ± 8.82 µM
same,resistance factor RF = IC50(A2780cis)/IC50(A2780),[2],23
same,IC50,[2]; [6],7.76 ± 0.497 µM
same,IC50,[3]; preliminary cytotoxicity data,0.375 ± 0.217 µM
